Patent US9441012B2, “Fluorinated epoxyketone-based compounds and uses thereof as proteasome inhibitors” (FLUORINOV PHARMA INC., priority 2012, dated 2016)

Assays:
Assay in all cases: NCI 60 human tumor cell line screen (SRB)
Format in all cases: cell-based
[1] = system: HL-60(TB); details: HL-60(TB) (Leukemia); 48 h
Source text: (§1) Representative compounds of Formula I were screened using the National Cancer Institute (NCI) screening panel, which consists of a panel of 60 different human tumor cell lines, representing leukemia [CCRF-CEM, HL-60 (TB), K-562, MOLT-4, SR], melanoma [LOX IMVI, MALME-3M, M14, SMDA-MB-435, SK-MEL-2, SK-MEL-28, SK-MEL-5, UACC-257 and UACC-62] and cancers of the lung [A549/ATCC, EKVX, HOP-62, HOP-93, NCI-H226, NCI-H23, NCI-H322M, NCI-H460], colon [COLO 205, HCT-116, HCT-15, HT29, KM12, SW-620], brain [SF-268, SF-295, SF-539, SNB-19, SNB-75, U251], ovary [IGROV1, OVCAR-3, OVCAR-4, OVCAR-5, OVCAR-8, NCI/ADR-RES, SK-OV-3], breast [MCF7, MDA-MB-231, BT-549, T-47D, MDA-MB-468], prostate [PC-3, DU-145], and renal[786-0, A498, ACHN, CAKI-1, RXF-393, SN12C, TK-10, UO-31] cancers.
(§2) After 24 h, two plates of each cell line are fixed in situ with TCA, to represent a measurement of the cell population for each cell line at the time of drug addition (Tz). Experimental drugs are solubilised in dimethyl sulfoxide at 400-fold the desired final maximum test concentration and stored frozen prior to use. At the time of drug addition, an aliquot of frozen concentrate is thawed and diluted to twice the desired final maximum test concentration with complete medium containing 50 μg/ml gentamicin. Additional four, 10-fold or ½ log serial dilutions are made to provide a total of five drug concentrations plus control. Aliquots of 100 μl of these different drug dilutions are added to the appropriate microtiter wells already containing 100 μl of medium, resulting in the required final drug concentrations.
(§3) Following drug addition, the plates are incubated for an additional 48 h at 37° C., 5% CO2, 95% air, and 100% relative humidity. For adherent cells, the assay is terminated by the addition of cold TCA (trichloroacetic acid). Cells are fixed in situ by the gentle addition of 50 μl of cold 50% (w/v) TCA (final concentration, 10% TCA) and incubated for 60 minutes at 4° C. The supernatant is discarded, and the plates are washed five times with tap water and air dried. Sulforhodamine B (SRB) solution (100 μl) at 0.4% (w/v) in 1% acetic acid is added to each well, and plates are incubated for 10 minutes at room temperature. After staining, unbound dye is removed by washing five times with 1% acetic acid and the plates are air dried. Bound stain is subsequently solubilised with 10 mM trizma base, and the absorbance is read on an automated plate reader at a wavelength of 515 nm. For suspension cells, the methodology is the same except that the assay is terminated by fixing settled cells at the bottom of the wells by gently adding 50 μl of 80% TCA (final concentration, 16% TCA). Using the seven absorbance measurements [time zero, (Tz), control growth, (C), and test growth in the presence of drug at the five concentration levels (Ti)], the percentage growth is calculated at each of the drug concentration levels. Percentage growth inhibition is calculated as: [(Ti−Tz)/(C−Tz)]×100 for concentrations in which Ti>/=Tz and [(Ti−Tz)/Tz]×100 for concentrations in which Ti<Tz.
(§4) Three dose response parameters are calculated for each experimental agent. Growth inhibition of 50% (GI50) is calculated from [(Ti−Tz)/(C−Tz)]100=50, which is the drug concentration resulting in a 50% reduction in the net protein increase (as measured by SRB staining) in control cells during the drug incubation. The drug concentration resulting in total growth inhibition (TGI) is calculated from Ti=Tz. The LC50 (concentration of drug resulting in a 50% reduction in the measured protein at the end of the drug treatment as compared to that at the beginning) indicating a net loss of cells following treatment is calculated from [(Ti−Tz)/Tz]×100=−50. Values are calculated for each of these three parameters if the level of activity is reached. However, if the effect is not reached or is exceeded, the value for that parameter is expressed as greater or less than the maximum or minimum concentration tested.

[2] = system: MALME-3M; details: MALME-3M (Melanoma); 48 h
Source text: as §1, §2, §3, §4

[3] = system: SF-539; details: SF-539 (CNS Cancer); 48 h
Source text: as §1, §2, §3, §4

[4] = system: MDA-MB-468; details: MDA-MB-468 (Breast Cancer); 48 h
Source text: as §1, §2, §3, §4

[5] = system: UACC-257; details: UACC-257 (Melanoma); 48 h
Source text: as §1, §2, §3, §4

[6] = system: COLO 205; details: COLO 205 (Colon Cancer); 48 h
Source text: as §1, §2, §3, §4

[7] = system: BT-549; details: BT-549 (Breast Cancer); 48 h
Source text: as §1, §2, §3, §4

[8] = system: OVCAR-3; details: OVCAR-3 (Ovarian Cancer); 48 h
Source text: as §1, §2, §3, §4

[9] = system: NCI/ADR-RES; details: NCI/ADR-RES (Ovarian Cancer); 48 h
Source text: as §1, §2, §3, §4

[10] = system: OVCAR-4; details: OVCAR-4 (Ovarian Cancer); 48 h
Source text: as §1, §2, §3, §4

[11] = system: DU-145; details: DU-145 (Prostate Cancer); 48 h
Source text: as §1, §2, §3, §4

[12] = system: MDA-MB-231/ATCC; details: MDA-MB-231/ATCC (Breast Cancer); 48 h
Source text: as §1, §2, §3, §4

SMILES | Log10GI50 [2] | Log10LC50 [2] | Log10TGI50 [2] | Log10GI50 [3] | Log10LC50 [3] | Log10TGI50 [3] | Log10GI50 [4] | Log10TGI50 [4] | Log10GI50 [5] | Log10LC50 [5] | Log10TGI50 [5] | Log10GI50 [6] | Log10LC50 [6] | Log10TGI50 [6] | Log10GI50 [7] | Log10LC50 [7] | Log10TGI50 [7] | Log10GI50 [8] | Log10LC50 [8] | Log10TGI50 [8] | other results
CC(C)C[C@H](NC(=O)[C@H](Cc1ccccc1)NC(=O)[C@H](COC(F)F)NC(=O)CN1CCOCC1)C(=O)[C@@]1(C)CO1 [Example 25, (2S)-2-[[(2S)-3-(difluoromethoxy)-2-[(2-morpholinoacetyl)amino]propanoyl]amino]-N-[(1S)-3-methyl-1-[(2R)-2-methyloxirane-2-carbonyl]butyl]-3-phenyl-propanamide] | −7.51 | >−4.00 | −6.64 | −7.63 | −6.48 | −7.26 | −7.54 | −6.96 | −7.18 | >−4.00 | −6.32 | −7.39 | −6.21 | −6.76 | −7.73 | −7.05 | −7.39 | −7.66 | −6.97 | −7.33 | Log10GI50 [1]: −7.45; Log10LC50 [1]: >−4.00; Log10TGI50 [1]: −6.35; Log10LC50 [4]: >−4.00; Log10GI50 [9]: −5.82; Log10LC50 [9]: >−4.00; Log10TGI50 [9]: >−4.00; Log10GI50 [10]: −7.50; Log10LC50 [10]: >−4.00; Log10TGI50 [10]: −6.75; Log10GI50 [11]: −7.27; Log10LC50 [11]: >−4.00; Log10TGI50 [11]: −5.32; Log10GI50 [12]: −7.52; Log10LC50 [12]: −4.21; Log10TGI50 [12]: −6.80
Cc1ncc(C(=O)N[C@@H](COC(F)F)C(=O)N[C@@H](COC(F)F)C(=O)N[C@@H](Cc2ccccc2)C(=O)[C@@]2(C)CO2)s1 [Example 1, 2-methyl-thiazole-5-carboxylic acid ((S)-1-{(S)-1-[(S)-1-benzyl-2-((R)-2-methyloxiranyl)-2-oxo-ethylcarbamoyl]-2-difluoromethoxyethylcarbamoyl}-2-difluoromethoxyethyl)-amide] | −7.30 | >−4.00 | −6.38 | −7.15 | −4.27 | −6.44 | −6.75 | −6.32 | −6.87 | >−4.00 | −6.20 | −6.22 | >−4.00 | −4.85 | −7.49 | −5.74 | −6.87 | −7.46 | −6.30 | −6.90 | Log10GI50 [1]: −6.56; Log10LC50 [1]: >−4.00; Log10TGI50 [1]: >−4.00; Log10GI50 [9]: −5.11; Log10LC50 [9]: >−4.00; Log10TGI50 [9]: −4.23; Log10GI50 [10]: −6.29; Log10LC50 [10]: >−4.00; Log10TGI50 [10]: >−4.00; Log10GI50 [11]: −6.58; Log10LC50 [11]: −5.02; Log10TGI50 [11]: −5.64; Log10GI50 [12]: −6.66; Log10LC50 [12]: −4.73; Log10TGI50 [12]: −6.01
C[C@]1(C(=O)[C@H](Cc2ccccc2)NC(=O)[C@H](COC(F)F)NC(=O)[C@H](COC(F)F)NC(=O)CN2CCOCC2)CO1 [Example 26, (S)-N-{(S)-1-[(S)-1-Benzyl-2-((R)-2-methyl-oxiranyl)-2-oxo-ethylcarbamoyl]-2-difluoromethoxyethyl}-3-difluoromethoxy-2-(2-morpholin-4-yl-acetylamino)-propio-namide] | −7.51 | >−4.00 | −6.64 | −7.63 | −6.48 | −7.26 | −7.54 | −6.96 | −7.18 | >−4.00 | −6.32 | −7.39 | −6.21 | −6.76 | −7.73 | −7.05 | −7.39 | −7.66 | −6.97 | −7.33 | Log10GI50 [1]: −7.45; Log10LC50 [1]: >−4.00; Log10TGI50 [1]: −6.35; Log10LC50 [4]: >−4.00; Log10GI50 [9]: −5.82; Log10LC50 [9]: >−4.00; Log10TGI50 [9]: >−4.00; Log10GI50 [10]: −7.50; Log10LC50 [10]: >−4.00; Log10TGI50 [10]: −6.75; Log10GI50 [11]: −7.27; Log10LC50 [11]: >−4.00; Log10TGI50 [11]: −5.32; Log10GI50 [12]: −7.52; Log10LC50 [12]: −4.21; Log10TGI50 [12]: −6.80
C[C@]1(C(=O)[C@H](Cc2ccccc2)NC(=O)[C@H](Cc2ccccc2)NC(=O)[C@H](COC(F)F)NC(=O)CN2CCOCC2)CO1 [Example 29] | −6.69 | >−4.00 | −6.15 | −7.39 | −4.49 | −6.76 | −6.67 | −6.10 | −6.81 | >−4.00 | −6.00 | −6.90 | −5.34 | −6.32 | −7.26 | −4.94 | −6.59 | −7.35 | −5.66 | −6.71 | Log10LC50 [4]: >−4.00; Log10GI50 [9]: −5.58; Log10LC50 [9]: >−4.00; Log10TGI50 [9]: >−4.00; Log10GI50 [10]: −6.98; Log10TGI50 [10]: >−4.00; Log10GI50 [11]: −7.00; Log10LC50 [11]: −4.09; Log10TGI50 [11]: −5.05; Log10GI50 [12]: −7.04; Log10LC50 [12]: −4.44; Log10TGI50 [12]: −6.27
